Test results from US9273038B2, “Solid forms of an ion channel modulator” (Gilead Sciences, Inc., priority 2014, dated 2016).
Converted amounts (≈) assume the structure as drawn. Like-named read-outs stand apart in the source and are kept apart here.

How the values were obtained:
[1] = Hydrate screen in ethanol/water and isopropanol/water: solubility and relative form stability; type: physicochemical; conditions: for Solubility: 5 days, started from Form I
Protocol: A hydrate screen starting from Form I was also conducted to evaluate whether hydrates of Compound I exist. The hydrate screen was conducted in ethanol/water (Table 6) and isopropanol/water (Table 7) mixtures, and in both cases, a new polymorph of Compound I was discovered (denoted as Form III).
From the initial hydrate screens presented in Table 6 and Table 7 no apparent trends were observed. In this case, all slurries of Form I in EtOH/water or IPA/water mixtures remained unchanged after 2 weeks (Table 8 and Table 9). Since Form III has been observed previously under the same conditions, it was suspected that the lack of form conversion is mainly due to slow kinetics. […] Attempts to determine the relative stability between Forms I and III at lower water activities were unsuccessful since Form I either was too soluble or oiled out at water activities of 0.8 or below.

[2] = Stable hydrate screen in methanol/water: solubility by TGA; type: physicochemical
Protocol: Since the hydrate screens from aqueous mixtures of ethanol and isopropyl alcohol were performed in a fairly narrow range of water activity (Aw≧0.8), it was desirable to determine the outcome over a wider range of water activities. An attempt was made to explore this using a system of methanol and water (Table 10). Form I was used as the starting material. […] At and above this Aw only Form I was found.

[3] = Determination of transition temperature between Forms I and II (slurries at 35 and 38° C., pXRD); type: physicochemical; conditions: slurries with and without Form II seeds, iPrOAc/n-heptane
Protocol: […] describes the set of experiments which concluded that Form I and II are enantiotropic forms and determined the transition temperature. Slurries of Form I with and without Form II seeds were stirred at 35° C. and 38° C. and samples were removed periodically for pXRD analysis. For slurries of Form I aged at 35° C., Form I dominated regardless of whether Form II seeds were present (albeit when Form II seeds were present, the full conversion to Form I took about 5 days) (Table 4). In contrast, slurries of Form I at 38° C. in the presence of Form II seeds rapidly turned over to Form II within 1 day and remained Form II even after the slurry was cooled to 20° C. for isolation. When no Form II seeds were present, Form I slurries remained unchanged even when aged at 38° C.

[4] = Extended stable form screen starting from Form II: solubility of filtrate by TGA; type: physicochemical; conditions: suspension of the solid in solvent, filtrate analysed, 21 °C, organic solvent or mixture, thermodynamic from solid, about 21° C.
Protocol: These experiments were performed at about 21° C. starting from Form II. After about 3 to 6 days in suspension two experiments produced full conversion from Form II to Form I; one became biphasic; and the rest remained Form II (FIG. 43). Three of the filtrates obtained from isolating the solid phase from samples became biphasic before the solubility could be measured by TGA.
After about 8 to 11 days in suspension the distribution of forms remained unchanged (FIG. 44). All of the filtrates except one became biphasic before solubility could be measured by TGA.

[5] = Dynamic vapor sorption (DVS) analysis; type: physicochemical; conditions: for Relative humidity of deliquescence (DVS): mono sulfate
Protocol: The solids with unique XRPD patterns were characterized by DSC, TGA, ^1H NMR, KF and DVS. All XRPD patterns were obtained in the experimental setting as follows: 45 kV, 40 mA, Kα1=1.5406 Å, scan range 2 to 40°, step size 0.0167°, counting time: 15.24 s. DSC and TGA analyses were performed using 10° C./min heating rate over the 20 to 350° C. temperature range.

[6] = Dissolution test of Compound I Form VII in DI water; type: physicochemical; conditions: about 8 mg in 0.5 mL DI water; stirred overnight at room temperature; solid found: free base Form I
Protocol: A dissolution test of Compound I Form VII (about 8 mg) and 0.5 mL of DI water was performed. The solids were almost completely dissolved at first, and then more solids precipitated out. The slurry was allowed to be stirred overnight at room temperature before XRPD and ^1H NMR analyses, which confirm Compound I free base (Form I).

[7] = Relative stability of Compound I Forms XIV and XV (seeding, heating at about 130° C., XRPD); type: physicochemical; conditions: seeding experiments; Form XV heated at about 130° C. for about 10 minutes gave Form XIV
Protocol: In another experiment, Compound I FORM XV was heated at about 130° C. for about 10 minutes and cooled to about 21° C. prior to XRPD analysis.

[8] = Stable form screen: solubility in single and binary solvents (HPLC, external standard); type: physicochemical
Protocol: In order to determine whether other polymorphs of Compound I exist, a stable form screen was conducted. […] As a result, slurries were typically produced in non-polar solvents. Table 1). Slurries were also generated in solvent combinations with n-heptane (Table 2) and cyclohexane (Table 3). In cases where a slurry was formed, Form I was isolated after agitation for 1 day and 3 weeks.

pKa = type: physicochemical
[9] = test system: late sodium current (INaL); conditions: as described in WO 2013/006485; cited from earlier work

O=C1c2cc(-c3ccc(OC(F)(F)F)cc3)ccc2OCCN1Cc1ncccn1 [Compound I Form I, 4-(pyrimidin-2-ylmethyl)-7-(4-(trifluoromethoxy)phenyl)-3,4-dihydrobenzo[f][1,4]oxazepin-5(2H)-one]
Form I Solubility mg/g (2 weeks) ([1]; 10% EtOH/water, water activity >0.9): 0.09 mg/g | Form I Solubility mg/g (2 weeks) ([1]; 10% IPA/water, water activity >0.9): 0.10 mg/g | Form I Solubility mg/g (2 weeks) ([1]; 20% EtOH/water, water activity 0.8-0.9): 0.10 mg/g | Form I Solubility mg/g (2 weeks) ([1]; 20% IPA/water, water activity >0.9): 0.18 mg/g | Form I Solubility mg/g (2 weeks) ([1]; 25% IPA/water, water activity >0.9): 0.65 mg/g | Form I Solubility mg/g (2 weeks) ([1]; 30% EtOH/water, water activity 0.8-0.9): 0.49 mg/g | Form I Solubility mg/g (2 weeks) ([1]; 30% IPA/water, water activity >0.9): 4.7 mg/g | Form I Solubility mg/g (2 weeks) ([1]; 35% EtOH/water, water activity 0.8-0.9): 1.3 mg/g | 3 days TGA ([2]; Aw 0.6, 3 days): 14 mg/mL | 3 days TGA ([2]; Aw 0.7, 3 days): 4.5 mg/mL | 14 days TGA ([2]; Aw 0.7, 14 days): 2 mg/mL | 3 days TGA ([2]; Aw 0.8, 3 days): 1.4 mg/mL | 14 days TGA ([2]; Aw 0.8, 14 days): 1 mg/mL | 3 days TGA ([2]; Aw 0.9, 3 days): 0.5 mg/mL | 14 days TGA ([2]; Aw 0.9, 14 days): <1 mg/mL | Solubility (in words) ([2]; Aw below 0.6, only solutions present): extraordinarily high | Relative stability of Forms I and II (in words) ([3]; listed as Form I): the more stable form at below 35 °C

O=C1c2cc(-c3ccc(OC(F)(F)F)cc3)ccc2OCCN1Cc1ncccn1 [Compound I Form II, 4-(pyrimidin-2-ylmethyl)-7-(4-(trifluoromethoxy)phenyl)-3,4-dihydrobenzo[f][1,4]oxazepin-5(2H)-one]
Solubility ([4]; Ethanol/n-heptane (1/4) v/v, 4-6 days, read-out: 4-6 Days Solubility): 32 mg/mL (≈ 77 mM) | Solubility ([4]; MIBK/n-heptane (1/4) v/v, 4-6 days, read-out: 4-6 Days Solubility): 26 mg/mL (≈ 62.6 mM) | Solubility ([4]; MIBK/n-heptane (1/4) v/v, 8-11 days, read-out: 8-11 Day Solubility): 35 mg/mL (≈ 84.3 mM) | Solubility ([4]; THF/n-heptane (1/4) v/v, 4-6 days, read-out: 4-6 Days Solubility): 29 mg/mL (≈ 69.8 mM) | Relative stability of Forms I and II (in words) ([3]; listed as Form II): the more stable form at or above 38 °C

Cc1ccc(S(=O)(=O)O)cc1.O=C1c2cc(-c3ccc(OC(F)(F)F)cc3)ccc2OCCN1Cc1ncccn1 [Compound I Form VII, 4-(pyrimidin-2-ylmethyl)-7-(4-(trifluoromethoxy)phenyl)-3,4-dihydrobenzo[f][1,4]oxazepin-5(2H)-one p-toluenesulfonic acid]
Hygroscopicity by DVS (in words) [5]: moderately hygroscopic | Moisture uptake at 90% RH (DVS) ([5]; 90% RH): about 2.75 wt % | Water adsorbed at 90% RH (DVS) ([5]; 90% RH): about 0.9 molar equivalents | Moisture uptake at 90% RH (DVS) ([5]; 90% RH, listed as Form VII): 2.75 wt % at | Hygroscopicity by DVS (in words) ([5]; listed as Form VII): Moderately | Stability in water (in words) [6]: unstable in water and dissociates in it

O=C1c2cc(-c3ccc(OC(F)(F)F)cc3)ccc2OCCN1Cc1ncccn1.O=S(=O)(O)O [Compound I Form XIV, 4-(pyrimidin-2-ylmethyl)-7-(4-(trifluoromethoxy)phenyl)-3,4-dihydrobenzo[f][1,4]oxazepin-5(2H)-one mono sulfate]
Relative humidity of deliquescence (DVS) ([5]; listed as Compound I FORM XIV): around 70 % RH | Relative humidity of deliquescence (DVS) [5]: about 70 % RH | Relative stability of Forms XIV and XV (in words) [7]: the more stable phase in comparison with Compound I FORM XV

O=C1c2cc(-c3ccc(OC(F)(F)F)cc3)ccc2OCCN1Cc1ncccn1 [Compound I, 4-(pyrimidin-2-ylmethyl)-7-(4-(trifluoromethoxy)phenyl)-3,4-dihydrobenzo[f][1,4]oxazepin-5(2H)-one]
Solubility (mg/g) (3 weeks) ([8]; 2-MeTHF/n-heptane (1:5) v/v, slurry, solid Form I): 6.7 mg/g | Solubility (mg/g) (3 weeks) ([8]; Cyclohexane, slurry, solid Form I): 2.4 mg/g | Solubility (mg/g) (1 day) ([8]; EtOAc/cyclohexane (1:3) v/v, 1 day, slurry, solid Form I): 86 mg/g | Solubility (mg/g) (3 weeks) ([8]; IPA/n-heptane (1:4) v/v, slurry, solid Form I): 20.0 mg/g | Solubility (mg/g) (3 weeks) ([8]; IPA, homogenous): >300 mg/g | Solubility (mg/g) (3 weeks) ([8]; IPE, slurry, solid Form I): 21.5 mg/g | Solubility (mg/g) (3 weeks) ([8]; MTBE/n-heptane (1:2) v/v, slurry, solid Form I): 5.4 mg/g | Solubility (mg/g) (3 weeks) ([8]; MTBE, homogenous): >240 mg/g | Solubility (mg/g) (3 weeks) ([8]; MeCN, homogenous): >350 mg/g | Solubility (mg/g) (3 weeks) ([8]; Toluene/n-heptane (1:3) v/v, slurry, solid Form I): 7.1 mg/g | Solubility (mg/g) (3 weeks) ([8]; Toluene, homogenous): >500 mg/g | Solubility (mg/g) (3 weeks) ([8]; Water, slurry, solid Form I): 0 mg/g | Solubility (mg/g) (3 weeks) ([8]; iPrOAc/n-heptane (1:3) v/v, slurry, solid Form I): 18.9 mg/g | Solubility in organic solvents (in words) ([8]; many organic solvents): highly soluble | Solubility (mg/g) (3 weeks) ([8]; n-Heptane, slurry, solid Form I): 0.9 mg/g | Solubility (mg/g) (3 weeks) ([8]; t-amyl alcohol/n-heptane (1:3) v/v, slurry, solid Form I): 17.5 mg/g | Solubility ([1]; 10% EtOH in water (volume), water activity >0.9, solid found Form I): 0 mg/g | Solubility ([1]; 10% IPA in water (volume), water activity >0.9, solid found Form III): 0 mg/g | Solubility ([1]; 20% EtOH in water (volume), water activity 0.8-0.9, solid found Form III): 0.05 mg/g | Solubility ([1]; 20% IPA in water (volume), water activity >0.9, solid found Form I): 0 mg/g | Solubility ([1]; 25% IPA in water (volume), water activity >0.9, solid found Form III): 0.5 mg/g | Solubility ([1]; 30% EtOH in water (volume), water activity 0.8-0.9, solid found Form I): 0.6 mg/g | pKa (pKa): < 2 | Late sodium current inhibition (in words) [9]: selective late sodium current inhibitor
